The values that follow come from publication PMC3833878, “In Silico Molecular Comparisons of C. elegans and Mammalian Pharmacology Identify Distinct Targets That Regulate Feeding” (PLoS Biology, 2013).

For experiment [1], the target named is Flt-3 receptor. More on the design: method as in PMID 20153646. As to conditions: cited from earlier work.
Experiment [2] deals with wild-type C. elegans. Put plainly: Pharyngeal pumping assay. Type of experiment: in vivo. As to conditions: for EC50: Caenorhabditis elegans, read-out: EC50 of the dose-dependent increase in the pharyngeal pumping rate. The protocol: (§1) Compounds at 1,000× stock concentrations (0.1–10 mM) in DMSO or an equal volume of DMSO were diluted in a suspension of E. coli OP-50 (100 µl of a 3× concentrated overnight culture in LB broth) and absorbed as a single drop onto 3.5 cm plates containing 2.5 ml of NGM agar forming a well-defined lawn of bacteria. For developmental exposures, 20–30 synchronized first larval stage C. elegans derived from alkaline hypochlorite treatment of gravid adults were applied to the preseeded plates and cultured until assay at mid-L4 stage (2 d, 20°C) or as day 1 gravid adults (3 d, 20°C). For naïve adult exposures, synchronized first larval stage animals were cultured on NGM-agar plates seeded with E. coli OP-50 for 3 d at 20°C, then transferred to assay plates, and pumping was assayed 1 to 16 h later. Comparisons between vehicle-treated and compound-treated animals were always performed between animals at the same developmental stage and same exposure time. Pharyngeal pumping was counted by live observation at 115–200× magnification using a stereo microscope and recorded at 10 s intervals using a manually controlled digital cell counter. Alternatively, C. elegans pumping was recorded for longer intervals (30–60 s) using bright-field time-lapse microscopy at 120× magnification with a 20 images per second acquisition rate. The resulting movies were analyzed manually at a playback rate of 10 images per second.
(§2) Significance was determined by one-way ANOVA applying a Dunnett's posttest when comparing multiple treatments to a single control and a Bonferroni posttest when comparing the more than two treatments against one another. For pairwise nonrepeated measured comparisons, a student's t test was used. To express data as a percentage of control, the pumping rates of compound-treated animals were divided by the mean pumping rate of the DMSO-treated wild-type animals measured in the same experiment, unless indicated otherwise. Error bars on the control samples indicate the variation around that mean, which is utilized in all statistical calculations.

Experiment [3] concerns tkr-1(RNAi) C. elegans. Put plainly: Pharyngeal pumping assay, compound on RNAi-treated animals. Type of experiment: in vivo. The procedure:
Synchronized first larval stage C. elegans were cultured for 3 d at 20°C on a lawn of HT115 E. coli induced with IPTG to express double-stranded RNAi as described.
Compounds at 1,000× stock concentrations (0.1–10 mM) in DMSO or an equal volume of DMSO were diluted in a suspension of E. coli OP-50 (100 µl of a 3× concentrated overnight culture in LB broth) and absorbed as a single drop onto 3.5 cm plates containing 2.5 ml of NGM agar forming a well-defined lawn of bacteria. […] Pharyngeal pumping was counted by live observation at 115–200× magnification using a stereo microscope and recorded at 10 s intervals using a manually controlled digital cell counter. Alternatively, C. elegans pumping was recorded for longer intervals (30–60 s) using bright-field time-lapse microscopy at 120× magnification with a 20 images per second acquisition rate. The resulting movies were analyzed manually at a playback rate of 10 images per second.
Significance was determined by one-way ANOVA applying a Dunnett's posttest when comparing multiple treatments to a single control and a Bonferroni posttest when comparing the more than two treatments against one another. For pairwise nonrepeated measured comparisons, a student's t test was used. […]

Experiment [4] concerns the target tachykinin receptor-2 (Homo sapiens, UniProt P21452). Description: Cell-based Ca flux assay (Multispan). The procedure:
(§3) Tachykinin, ghrelin, and calcium-sensing receptor activity were measured using a cell-based Ca flux assay by Multispan, Inc. (Hayward, California). Cholescystokinin A and B receptors were assayed for effects on cAMP production, and nicotinic acid receptor activity was measured in a cell-based assay of forskolin-stimulated cAMP production by Multispan, Inc. […], PP2A phosphatase activity assays were performed by CEREP (Celle l'Evescault, France) using PP2A from human erythrocytes. Phospholipase C from Bacillus cereus was assayed by CEREP, Inc. using glycero-phosphatidyl ethanolamine as a substrate, monitoring diacyl glycerol production. Radioligand binding assays for PPAR-α, γ, δ and the androgen receptor were performed by CEREP, Inc. CARNA Biosciences (Kobe, Japan) performed in vitro kinase activity assays using recombinant catalytic domains and measured phosphorylation of an Src-derived peptide for Flt-3 and phosphatidyl inositol for PI3KCA. Radioligand binding assays for the oxytocin receptor, D4 dopamine receptor, cannabinoid CB2 receptor, and angiotensin type I and II receptors were performed as described previously, as were cell-based activity assays for mGluR 1a, 2, 4, 5, 6, and 8 [60]–[62].

Experiment [5] deals with tachykinin receptor-3 (Homo sapiens, UniProt P29371). Description: Cell-based Ca flux assay (Multispan). The procedure: as §3
Chain of tachykinin receptor-3 (P29371 whole entry): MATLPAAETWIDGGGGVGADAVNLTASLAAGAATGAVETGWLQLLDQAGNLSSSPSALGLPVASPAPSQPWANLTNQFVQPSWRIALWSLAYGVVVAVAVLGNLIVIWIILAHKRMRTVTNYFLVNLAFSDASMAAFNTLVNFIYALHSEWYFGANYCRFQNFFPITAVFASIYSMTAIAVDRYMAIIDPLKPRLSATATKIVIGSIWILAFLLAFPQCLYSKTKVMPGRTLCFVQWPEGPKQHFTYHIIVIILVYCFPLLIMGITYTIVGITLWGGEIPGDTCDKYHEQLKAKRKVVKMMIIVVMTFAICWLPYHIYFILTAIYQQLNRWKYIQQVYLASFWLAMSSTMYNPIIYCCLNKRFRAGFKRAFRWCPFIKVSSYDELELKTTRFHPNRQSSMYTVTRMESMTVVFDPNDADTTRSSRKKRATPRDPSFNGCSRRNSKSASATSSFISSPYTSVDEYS
Experiment [6] deals with C. elegans. On the set-up: method as in earlier work. To be noted: earlier phenotypic screen ref 11; cited from earlier work.
Experiment [7] concerns the target tachykinin receptor-1 (Homo sapiens, UniProt P25103). Description: Cell-based Ca flux assay, cells stimulated by neurokinin-1 peptide (Multispan). As to conditions: marked with footnote d in Figure 2. The procedure: as §3
Supplementary file pbio.1001712.s001.tif: Figure S1 Dose-response measurements that validate SEA predictions for GPCRs. […]

Experiment [8] addresses Oxtr. More on the design: method as in PMID 7473590. To be noted: cited from earlier work.
Experiment [9] concerns ver-2(ok897) mutant C. elegans. Put plainly: Pharyngeal pumping assay, compound on high-feeding mutant. It is filed as in vivo. To be noted: percentage of the mutant's pumping rate on DMSO; 10 µM B16, D20, K9, F15, H6; 200 nM L-371257, SB 222200; 2 µM MMPIP, 5-flurox. The procedure:
as §1, §2
(§4) The pumping rates are expressed as a percentage of the mutant’s pumping rate on DMSO, the vehicle control. p-values were calculated relative to DMSO treatment of each mutant by one-way ANOVA using Dunnett’s multiple comparison test.

For experiment [10], the system named is ver-3(ok891) mutant C. elegans. The experiment is described as above. It is filed as in vivo. As to conditions: percentage of the mutant's pumping rate on DMSO; 10 µM B16, D20, K9, F15, H6; 200 nM L-371257, SB 222200; 2 µM MMPIP, 5-flurox. The procedure: as §1, §2, §4
For experiment [11], the system named is mgl-2(tm355) mutant C. elegans. Described as above. It is filed as in vivo. To be noted: percentage of the mutant's pumping rate on DMSO; 10 µM B16, D20, K9, F15, H6; 200 nM L-371257, SB 222200; 2 µM MMPIP, 5-flurox. The protocol:
as §1, §2, §4

Experiment [12] has as its system gnrr-3(tm4152) mutant C. elegans. The description is as above. It is filed as in vivo. To be noted: percentage of the mutant's pumping rate on DMSO; 10 µM B16, D20, K9, F15, H6; 200 nM L-371257, SB 222200; 2 µM MMPIP, 5-flurox. The procedure:
as §1, §2, §4

Experiment [13] deals with gnrr-1(ok238) mutant C. elegans. Described as above. Type of experiment: in vivo. To be noted: percentage of the mutant's pumping rate on DMSO; 10 µM B16, D20, K9, F15, H6; 200 nM L-371257, SB 222200; 2 µM MMPIP, 5-flurox. The procedure:
as §1, §2, §4

Chain of tachykinin receptor-1 (P25103 whole entry): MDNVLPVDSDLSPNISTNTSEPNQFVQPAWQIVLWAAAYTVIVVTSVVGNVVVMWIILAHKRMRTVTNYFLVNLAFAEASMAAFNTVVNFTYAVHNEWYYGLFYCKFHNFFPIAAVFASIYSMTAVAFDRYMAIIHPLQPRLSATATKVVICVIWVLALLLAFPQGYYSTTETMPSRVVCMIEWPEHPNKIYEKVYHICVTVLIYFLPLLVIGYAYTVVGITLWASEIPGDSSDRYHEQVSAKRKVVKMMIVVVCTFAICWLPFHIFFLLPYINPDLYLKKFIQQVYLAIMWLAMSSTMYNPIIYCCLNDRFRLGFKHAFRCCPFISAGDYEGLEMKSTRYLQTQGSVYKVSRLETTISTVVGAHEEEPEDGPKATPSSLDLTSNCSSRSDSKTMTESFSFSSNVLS
Chain of tachykinin receptor-2 (P21452 whole entry): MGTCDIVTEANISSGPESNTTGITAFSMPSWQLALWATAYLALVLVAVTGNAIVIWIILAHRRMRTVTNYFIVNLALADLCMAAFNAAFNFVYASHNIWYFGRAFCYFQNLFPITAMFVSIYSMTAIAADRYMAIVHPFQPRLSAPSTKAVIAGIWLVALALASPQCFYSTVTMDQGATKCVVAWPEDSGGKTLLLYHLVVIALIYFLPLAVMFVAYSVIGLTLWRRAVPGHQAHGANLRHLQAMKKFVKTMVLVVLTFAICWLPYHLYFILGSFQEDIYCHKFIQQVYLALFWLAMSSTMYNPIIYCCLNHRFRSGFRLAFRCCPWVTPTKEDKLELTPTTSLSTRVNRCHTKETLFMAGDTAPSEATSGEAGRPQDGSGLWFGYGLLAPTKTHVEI

For the compound `O=C1Nc2ccc(F)cc2/C1=C1/Nc2ccccc2C1=NO` [5-flurox, 5′-fluoroindirubinoxime, reference compound], the IC50 in experiment [1] was 15 nM. Also, the half-maximal effective concentration (EC50) in [2] was 40 nM.

`COc1ccc(OC)c(-c2cc(NC(=O)c3ccccc3C(N)=O)c3ccccc3n2)c1` [H6]: the Pharmacological relationship entry in experiment [3] (to C. elegans tkr-1 (C38C10.1), homolog of human Tkr-1) is “antagonist”. Also, the Ki in experiment [4] is greater than 10000 nM; in experiment [5], greater than 10000 nM; in experiment [7] it was 1900 nM. For the same compound, in experiment [6], the “Nile Red staining” value is “increased”. Besides, the “increase in pharyngeal pumping” value in experiment [2] (10 µM, cultured 3 d from L1, long-term video (60 s) and short-term manual (10 s) measurements) is listed as 7%–12%. Also, the “exposure time after which the feeding elevating effect was notable” value in experiment [2] (10 µM, naïve day 1 gravid adults) is roughly 16 h. In addition, the “effect on the pharyngeal pumping rate” value in experiment [2] (wild-type, 10 µM versus 0.1% DMSO) is on record as “increased”.

As for `COc1cc(OC2CCN(C(C)=O)CC2)ccc1C(=O)N1CCC(N2C(=O)OCc3ccccc32)CC1` [L-371257, 1-(1-[4-[(N-acetyl-4-piperidinyl)oxy]-2-methoxybenzoyl]piperidin-4-yl)-4H-3,1-benzoxazin-2(1H)-one, reference compound], the “pharyngeal pumping rate, mean” value in experiment [3] (percentage of the pumping rate of tkr-1(RNAi) animals on DMSO, 10 µM B16, D20, K9, F15, H6, 200 nM L-371257, SB 222200, 2 µM MMPIP, 5-flurox) was determined as 109.9%; in experiment [9] it was 100.8%; in experiment [10], 94.8%; in [11], 105.0%; in [12], 108.5%; in experiment [13], 99.2%. The inhibition constant (Ki) in [8] was 4.6 nM. For the same compound, in experiment [2], the EC50 amounted to 10 nM.

One may read the IC50 as the concentration at which inhibition is half-maximal. A word on the EC50: it is the concentration needed to bring the measured effect to its halfway point. As a reminder, the Ki is a measure of affinity in units of concentration, obtained from inhibition or displacement.
